Assay results reported in the supplement of paper PMC10307832.

Columns and labels:
Apatinib + Tozasertib = compound: N#CC1(c2ccc(NC(=O)c3cccnc3NCc3ccncc3)cc2)CCCC1 [Apatinib] + Cc1cc(Nc2cc(N3CCN(C)CC3)nc(Sc3ccc(NC(=O)C4CC4)cc3)n2)n[nH]1 [Tozasertib] (partner 0.1 µM); experiment: relative viability (nuclei count vs DMSO), 5 days (fraction); higher = more cells survive
Procedure, shortened: (§1)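 Lung cancer cell lines in 1536-well plates got either a single drug or a fixed anchor-drug dose together with five library-drug doses (not always all listed) in √10 steps, by pin tool, on the day after seeding. Nuclei were counted after 5 days, and relative viability is the treated-to-vehicle ratio of nuclei counts. Values are medians of duplicate plates.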

Metformin + Foretinib = compound: CN(C)C(=N)NC(=N)N [Metformin] + COc1cc2c(Oc3ccc(NC(=O)C4(C(=O)Nc5ccc(F)cc5)CC4)cc3F)ccnc2cc1OCCCN1CCOCC1 [Foretinib] (partner 0.25 µM); experiment: as above
Procedure, shortened: as §1

Cell Line | relative viability (Apatinib + Tozasertib; first compound 0.08 µM) | relative viability (Apatinib + Tozasertib; first compound 0.253 µM) | relative viability (Apatinib + Tozasertib; first compound 0.8 µM) | relative viability (Apatinib + Tozasertib; first compound 2.53 µM) | relative viability (Apatinib + Tozasertib; first compound 8 µM) | relative viability (Metformin + Foretinib; first compound 10 µM) | relative viability (Metformin + Foretinib; first compound 31.62 µM) | relative viability (Metformin + Foretinib; first compound 100 µM) | relative viability (Metformin + Foretinib; first compound 316.23 µM) | relative viability (Metformin + Foretinib; first compound 1000 µM)
LOU-NH91 | 0.741 | 0.729 | 0.618 | 0.601 | 0.546 | 1.03 | 1.02 | 1.03 | 0.972 | 1.06
NCI-H2087 | 0.241 | 0.223 | 0.215 | 0.179 | 0.143 | – | 0.966 | 1.12 | 0.891 | 1.06
LK-2 | 0.159 | 0.195 | 0.183 | 0.152 | 0.175 | 1.72 | 1.93 | 1.79 | 1.28 | –
NCI-H2347 | 0.504 | 0.651 | 0.604 | 0.428 | 0.466 | 0.844 | 0.578 | 0.784 | 0.885 | 0.459
COR-L 105 | 0.387 | 0.313 | 0.355 | 0.351 | 0.304 | 1.23 | 1.38 | 1.23 | 1.14 | 0.791
NCI-H1437 | 0.453 | 0.461 | 0.393 | 0.333 | 0.281 | 1.3 | 1.31 | 1.32 | 1.29 | 1.21
ABC-1 | – | 0.177 | 0.165 | 0.178 | 0.191 | 1.48 | 1.14 | 1.05 | 1.02 | 0.287
SK-LU-1 | 0.337 | 0.436 | 0.28 | 0.275 | 0.243 | 0.807 | 0.77 | 0.769 | 0.69 | 0.79
NCI-H1755 | 0.64 | 0.542 | 0.529 | 0.506 | 0.447 | 0.757 | 0.789 | 0.778 | 0.742 | 0.816
NCI-H2405 | 0.911 | 0.759 | 0.685 | 0.607 | 0.604 | 0.936 | 1.06 | 1.11 | 1.01 | 1.09
NCI-H1993 | 0.637 | 0.619 | 0.605 | 0.583 | 0.595 | 0.964 | 1.02 | 0.912 | 0.836 | 1.06
NCI-H322M | 0.454 | 0.426 | 0.437 | 0.441 | 0.503 | 1.14 | 1.03 | 1.05 | 1.1 | 0.935
EMC-BAC-2 | 0.334 | 0.307 | 0.245 | 0.229 | 0.194 | 1.03 | 1.1 | 1.09 | 0.976 | 1.09
NCI-H2228 | 0.268 | 0.221 | 0.225 | 0.164 | 0.0952 | 0.804 | 0.862 | 1.09 | 0.671 | 0.768
PC-14 | 0.7 | 0.65 | 0.536 | 0.562 | 0.493 | 0.795 | 1.08 | 0.879 | 0.932 | 1
RERF-LC-KJ | 0.538 | 0.428 | 0.393 | 0.326 | 0.293 | 0.775 | 0.796 | 0.804 | 0.763 | 0.935
NCI-H2085 | 0.844 | 0.767 | 0.726 | 0.379 | 0.406 | 0.854 | 0.892 | 0.865 | 1.04 | 1.19
LC-2-ad | 0.516 | 0.522 | 0.466 | 0.462 | 0.446 | – | 0.788 | 0.923 | 0.692 | 0.624
ChaGo-K-1 | 0.194 | 0.227 | 0.193 | 0.208 | 0.178 | 0.924 | 1.07 | 0.959 | 0.864 | 0.962
NCI-H1623 | 0.45 | 0.454 | 0.451 | 0.417 | 0.407 | 0.799 | 0.811 | 1.02 | 1.01 | 0.864
NCI-H23 | 0.374 | 0.516 | 0.339 | 0.243 | 0.197 | 0.925 | 1.1 | 1.01 | 0.953 | 1.08
NCI-H647 | 0.288 | 0.503 | 0.19 | 0.144 | 0.206 | 1.08 | 1.07 | 1.26 | 0.932 | 1.1
LXF-289 | 0.211 | 0.247 | 0.171 | 0.175 | 0.132 | 0.873 | 0.918 | 0.879 | 0.916 | 0.912

Cell Line | relative viability (Apatinib + Tozasertib; first compound 0.08 µM) | relative viability (Apatinib + Tozasertib; first compound 0.253 µM) | relative viability (Apatinib + Tozasertib; first compound 0.8 µM) | relative viability (Apatinib + Tozasertib; first compound 2.53 µM) | relative viability (Apatinib + Tozasertib; first compound 8 µM) | relative viability (Metformin + Foretinib; first compound 10 µM) | relative viability (Metformin + Foretinib; first compound 31.62 µM) | relative viability (Metformin + Foretinib; first compound 100 µM) | relative viability (Metformin + Foretinib; first compound 316.23 µM) | relative viability (Metformin + Foretinib; first compound 1000 µM)
PC-3 [JPC-3] | 0.904 | 0.871 | 0.78 | 0.814 | 0.681 | 0.808 | 0.945 | 0.996 | 0.93 | 0.946
UMC-11 | 0.193 | 0.194 | 0.198 | 0.211 | 0.198 | 1.14 | 1.09 | 1.05 | 1.1 | 1.07
H3255 | 0.775 | 0.697 | 0.795 | 0.521 | 0.435 | 0.863 | 0.96 | 0.91 | 0.747 | 0.877
NCI-H2170 | 0.86 | 0.879 | 0.677 | 0.652 | 0.51 | 0.951 | 1.02 | 0.915 | 0.95 | 0.965
NCI-H1651 | 0.753 | 0.756 | 0.717 | 0.34 | 0.362 | 1.01 | 0.765 | 1.03 | 0.802 | 1.02
SK-MES-1 | 0.972 | 0.928 | 0.729 | 0.77 | 0.484 | 0.915 | 0.888 | 0.874 | 0.912 | 1.18
NCI-H1355 | 0.576 | 0.611 | 0.474 | 0.33 | 0.217 | 0.941 | 1.05 | 0.998 | 0.972 | 0.99
NCI-H2342 | 0.527 | 0.492 | 0.53 | 0.455 | 0.373 | 0.972 | 1.15 | 1.07 | 1 | 1.21
HOP-62 | 0.442 | 0.403 | 0.329 | 0.257 | 0.192 | 0.882 | 1.08 | 1.08 | 0.985 | 1
HCC-366 | 0.11 | 0.0735 | 0.0616 | 0.0574 | 0.0476 | 1.09 | 0.928 | 0.881 | 0.955 | 0.943
BEN | 0.551 | 0.601 | 0.492 | 0.452 | 0.42 | 1.08 | 1.25 | 1.04 | 0.799 | 1.33
NCI-H520 | 0.445 | 0.427 | 0.437 | 0.409 | 0.417 | 0.765 | 0.74 | 0.783 | 0.703 | 0.953
NCI-H2023 | 0.43 | 0.307 | 0.195 | 0.162 | 0.135 | 0.99 | 0.828 | 0.854 | 0.909 | 0.47
NCI-H1793 | 0.38 | 0.369 | 0.245 | 0.209 | 0.226 | 0.78 | – | 1.01 | 0.743 | 1.18
NCI-H838 | 0.301 | 0.302 | 0.248 | 0.222 | 0.213 | 1.04 | 1.13 | 1.07 | 0.984 | 0.996
SW 1573 | 0.165 | 0.196 | 0.193 | 0.185 | 0.183 | 0.955 | 1.04 | 0.914 | 0.788 | 1.1
HCC-15 | 0.376 | 0.48 | 0.357 | 0.248 | 0.163 | – | 1.06 | 1.1 | 0.905 | 0.911
NCI-H1666 | 0.595 | 0.583 | 0.501 | 0.615 | 0.526 | 1.03 | 1.03 | 1.08 | 1.03 | 1.09
A-427 | 0.178 | 0.241 | 0.175 | 0.188 | 0.147 | 1.12 | 1.2 | 0.954 | 0.981 | 1.23
LU99A | 0.325 | 0.317 | 0.276 | 0.231 | 0.203 | 0.57 | 0.676 | 0.643 | 0.596 | 0.677
NCI-H727 | 0.676 | 0.631 | 0.545 | 0.559 | 0.488 | 0.971 | 0.769 | 0.959 | 0.914 | 0.927
EPLC-272H | 0.28 | – | 0.248 | 0.18 | 0.144 | 0.864 | 0.909 | 0.978 | 0.784 | 1.09
